pIC50: −log10 of the molar value.
Target: protein kinase C
Test: enzyme assay of protein kinase C activated with phosphatidylserine and diacylglycerol (according to EP-OS 0,255,126)
Type: biochemical
Conditions: read-out: 50% inhibition at a concentration of
Method: The compounds according to the invention are potent inhibitors of protein kinases, such as protein kinase C. […] The experiment was carried out according to EP-OS 0,255,126 (inhibition of protein kinase C). Admittedly, indolocarbazoles have already been described as inhibitors of protein kinase C (J Antibiotic 30:275, 1977; Biochem Biophys Res Commun 135:397, 1986). However, it is thereby mainly a question of indolocarbazole-N,N-glycosidesof microbial or semisynthetic origin.

In the case of “2 (and 10)-Chloro-12-ethyl-6,7,12,13-tetrahydro-5-oxo-5H-indolo[2,3-a]pyrrolo[3,4-c]carbazole [Example 3.a]”, the pIC50 was 6.51.

Source: patent US5438050A, “Indolocarbazole derivatives, processes for their preparation and compositions containing them” (Godecke Aktiengesellschaft, priority 1988, dated 1995)
